In US20190218504A1, “METHODS OF CULTURING AURANTIOCHYTRIUM USING ACETATE AS AN ORGANIC CARBON SOURCE” (HELIAE DEVELOPMENT LLC, priority 2016, published 2019):
Like-named read-outs stand apart in the source and are kept apart here.

Experiments:
[1] = test system: Aurantiochytrium sp. HS399; details: cultures with a pH of 5 and above
Procedure: Aurantiochytrium was grown in an acetic acid/pH-auxostat mode in 700 ml bubble column at 27° C. in sterile conditions. […] Trace and vitamins stocks were prepared according to Ashford, et al. 2000.

[2] = test system: Aurantiochytrium sp. HS399; details: Table 19
Procedure: (§1) An experiment was performed to determine the effectiveness of growing Aurantiochytrium with combination of acetate and a non-acetate organic carbon sources, in this case glycerol. Aurantiochytrium sp. HS399 was grown in a 100 L open pond. The base medium contained: sodium acetate (1 g/L), glycerol (30 g/L) monosodium glutamate monohydrate (2.5 g/L) NaCl (12.5 g/L), MgSO4.7H2O (2.5 g/L), KCl (0.5 g/L), CaCl2 (0.1 g/L), KH2PO4 (0.5 g/L), vitamins (1 ml/L), and trace metal (5 ml/L). Trace and vitamins stocks were prepared according to Ashford, et al. 2000. Lipids 35, 1377-1386. The ponds were inoculated at 1 v/v using exponentially growing cultures. Aeration was maintained at 0.5 vvm using a porous hose. In one treatment the pH was controlled at a set point of pH 7 with hydrochloric acid, and no acetic acid was supplied (i.e., glycerol only). In another treatment acetic acid was supplied by a pH auxostat system at a set point of 5.5 in addition to the glycerol. The impact on microalgae growth and contamination was analyzed by measuring dry weights (filtration), residual acetate concentration in the culture medium (HPLC), and total aerobic bacteria counts (petrifilms) daily.

aerobic bacteria = details: throughout the batch, Table 20
Procedure: as §1

[3] = test system: Aurantiochytrium sp. HS399; details: FIG. 1; pH set point 5.5 and 7
Procedure: An experiment was performed to determine the ability of Aurantiochytrium to grow on combination of acetate and another organic carbon source in axenic and contaminated culture conditions. […] The initial culture medium was supplemented with 30 g/L glycerol and 0.5 g/L acetate. […] Cell dry weights were measured daily.

[4] = test system: Aurantiochytrium sp. HS399; details: for growth with nitrogen source under an acetic acid pH auxostat system: pH 5.5 or 6.0
[5] = test system: Aurantiochytrium sp. HS399
Procedure: An experiment was performed to determine if Aurantiochytrium sp. HS399 can grow using acetate as an organic carbon source and ammonia as a nitrogen source. Aurantiochytrium was grown in an acetic acid/pH-auxostat mode in 700 ml bubble column at 27° C. in sterile conditions. The base medium contained: NaCl (12.5 g/L), MgSO4.7H2O (2.5 g/L), KCl (0.5 g/L). CaCl2) (0.1 g/L), KH2PO4 (0.125 g/L) vitamins (0.25 ml/L) and trace metal (1.25 ml/L). Trace and vitamins stocks were prepared according to Ashford, et al. 2000. Lipids 35, 1377-1386. A blend of ammonium (hydroxide and acetic acid 1:5 w/w) with slightly higher molar ratio of acetic acid (1:1.1) was prepared with the aim maintain residual acetate present until the end of the pH auxostat. The pH auxostat was set to pH 6.6. The ammonium acetate blend was added to the treatments in order to match the following concentrations: 1×: 1.07 g/L NH4, 5.68 g/L acetic acid, 3×: 3.21 g/L NH4, 17.04 g/L acetic acid, 5×: 5.35 g/L NH4, 28.40 g/L acetic acid, 7×: 7.49 g/L NH4, 39.76 g/L acetic acid.

CC(=O)O [Acetic Acid, acetic acid]
growth using acetate as an organic carbon source [1]: able to grow
growth compared to the other culture (glycerol only, HCl) [2]: comparable growth
decrease of aerobic bacteria counts as compared to the other treatment (aerobic bacteria): ≥ 3 log
growth in axenic and contaminated cultures versus cultures not receiving acetic acid [3]: comparable growth

N[C@@H](CCC(=O)O)C(=O)[O-].[Na+] [MSG, monosodium glutamate]
Cell Dry Weight ([4]; pH 5.5, 2.5 g/L, time 1 d): 2.6 ± 0.0 g/L
Cell Dry Weight ([4]; pH 5.5, 2.5 g/L, time 2 d): 5.2 ± 0.0 g/L
Cell Dry Weight ([4]; pH 5.5, 2.5 g/L, time 3 d): 7.5 ± 0.2 g/L
Cell Dry Weight ([4]; pH 5.5, 2.5 g/L, time 4 d): 8.8 ± 0.4 g/L
Cell Dry Weight ([4]; pH 5.5, 2.5 g/L, time 5 d): 10.4 ± 0.4 g/L
Cell Dry Weight ([4]; pH 5.5, 2.5 g/L, time 6 d): 11.4 ± 0.3 g/L
growth with nitrogen source under an acetic acid pH auxostat system [4]: could grow
Cell Dry Weight ([4]; pH 6.0, 10 g/L, time 1 d): 3.6 ± 0.3 g/L
Cell Dry Weight ([4]; pH 6.0, 10 g/L, time 2 d): 6.1 ± 0.1 g/L
Cell Dry Weight ([4]; pH 6.0, 10 g/L, time 4 d): 7.9 ± 2.0 g/L
Cell Dry Weight ([4]; pH 6.0, 10 g/L, time 6 d): 11.9 ± 2.6 g/L

CC(=O)O.N [NH4AoC, ammonium acetate]
Cell Dry Weight ([5]; 1X (1.07 g/L NH4, 5.68 g/L acetic acid), time 0 d): 0.6 ± 0.0 g/L
Cell Dry Weight ([5]; 1X, time 1 d): 2.2 ± 0.0 g/L
Cell Dry Weight ([5]; 1X, time 2 d): 4.8 ± 0.0 g/L
Cell Dry Weight ([5]; 1X, time 3 d): 7.0 ± 0.1 g/L
Cell Dry Weight ([5]; 1X, time 4 d): 7.9 ± 0.1 g/L
Cell Dry Weight ([5]; 1X, time 5 d): 8.7 ± 0.2 g/L
Cell Dry Weight ([5]; 1X, time 6 d): 9.4 ± 0.1 g/L
growth on ammonium acetate blends ([5]; 1× and 3× blends, pH 6.6): able to grow
Cell Dry Weight ([5]; 3X (3.21 g/L NH4, 17.04 g/L acetic acid), time 0 d): 0.6 ± 0.0 g/L
Cell Dry Weight ([5]; 3X, time 1 d): 1.7 ± 0.1 g/L
Cell Dry Weight ([5]; 3X, time 2 d): 3.6 ± 0.3 g/L
Cell Dry Weight ([5]; 3X, time 3 d): 5.2 ± 0.1 g/L
Cell Dry Weight ([5]; 3X, time 4 d): 6.5 ± 0.3 g/L
Cell Dry Weight ([5]; 3X, time 5 d): 6.8 ± 0.3 g/L
Cell Dry Weight ([5]; 3X, time 6 d): 7.5 ± 0.1 g/L
Cell Dry Weight ([5]; 5X (5.35 g/L NH4, 28.40 g/L acetic acid), time 0 d): 0.6 ± 0.0 g/L
Cell Dry Weight ([5]; 5X, time 1 d): 0.8 ± 0.2 g/L
Cell Dry Weight ([5]; 5X, time 2 d): 0.7 ± 0.1 g/L
Cell Dry Weight ([5]; 5X, time 3 d): 0.7 ± 0.0 g/L
Cell Dry Weight ([5]; 5X, time 4 d): 0.8 ± 0.1 g/L
Cell Dry Weight ([5]; 5X, time 5 d): 0.3 ± 0.0 g/L
Cell Dry Weight ([5]; 5X, time 6 d): 0.4 ± 0.0 g/L
Cell Dry Weight ([5]; 7X (7.49 g/L NH4, 39.76 g/L acetic acid), time 0 d): 0.6 ± 0.0 g/L
Cell Dry Weight ([5]; 7X, time 1 d): 1.0 ± 0.2 g/L
Cell Dry Weight ([5]; 7X, time 2 d): 0.6 ± 0.1 g/L
Cell Dry Weight ([5]; 7X, time 3 d): 0.7 ± 0.0 g/L
Cell Dry Weight ([5]; 7X, time 4 d): 0.8 ± 0.1 g/L
Cell Dry Weight ([5]; 7X, time 5 d): 0.3 ± 0.0 g/L
Cell Dry Weight ([5]; 7X, time 6 d): 0.6 ± 0.1 g/L
Cell Dry Weight ([4]; pH 5.5, 1.1 g/L, time 0 d): 0.2 ± 0.0 g/L
Cell Dry Weight ([4]; pH 5.5, 1.1 g/L, time 1 d): 2.5 ± 0.1 g/L
Cell Dry Weight ([4]; pH 5.5, 1.1 g/L, time 2 d): 4.9 ± 0.1 g/L
Cell Dry Weight ([4]; pH 5.5, 1.1 g/L, time 3 d): 7.5 ± 0.3 g/L
Cell Dry Weight ([4]; pH 5.5, 1.1 g/L, time 4 d): 8.9 ± 0.2 g/L
Cell Dry Weight ([4]; pH 5.5, 1.1 g/L, time 5 d): 10.7 ± 0.3 g/L
Cell Dry Weight ([4]; pH 5.5, 1.1 g/L, time 6 d): 11.8 ± 0.1 g/L
growth with nitrogen source under an acetic acid pH auxostat system [4]: could grow
Cell Dry Weight ([4]; pH 6.0, 4.5 g/L, time 0 d): 0.2 ± 0.0 g/L
Cell Dry Weight ([4]; pH 6.0, 4.5 g/L, time 1 d): 2.6 ± 0.1 g/L
Cell Dry Weight ([4]; pH 6.0, 4.5 g/L, time 2 d): 5.4 ± 0.4 g/L
Cell Dry Weight ([4]; pH 6.0, 4.5 g/L, time 3 d): 7.8 ± 0.1 g/L
Cell Dry Weight ([4]; pH 6.0, 4.5 g/L, time 4 d): 9.8 ± 0.5 g/L
Cell Dry Weight ([4]; pH 6.0, 4.5 g/L, time 5 d): 11.9 ± 0.2 g/L
Cell Dry Weight ([4]; pH 6.0, 4.5 g/L, time 6 d): 13.8 ± 0.2 g/L
